Assay results published in US8003823B2, “Halo active aromatic sulfonamide organic compounds and odor control uses therefor” (priority 2002, dated 2011).

Key:
[1] = Stability of sulfonamide in base formulation at various pHs and alcohols; type: physicochemical
Protocol: In order to evaluate the stability of various sulfonamide compounds for use in odor control, the stability of N-chloro-4carboxybenzenesulfonamide disodium salt was evaluated at various pHs. A base sulfonamide formulation was prepared in accordance with the following formulation: […]
The pH of 20 ml sample of the base formulation is 8.7. The temperature of the sample was raised to 50° C. and the sample was allowed to stand for 30 days.
21. The test protocol of Example 20 was repeated except that the pH of the sample was adjusted to 6.0, with 1N sulfuric acid and the sample was allowed to stand for 1 day. At the end of this period 0%, of the N-chloro-4-carboxybenzenesulfonamide disodium salt remained.
22. The test procedure of Example 20 was repeated, wherein the pH of the sample was adjusted to 6.0 with 1N sulfuric acid and the t-Butanol was replaced with ethanol. The solution was allowed to stand 1 day at which time 0% of the sulfonamide compound remained.
23. The test procedure of Example 20 was repeated where the pH of the sample was 8.7 and the t-butanol was replaced with ethanol. The sample was allowed to stand for 7 days. At the end of this period 0%, the N-chloro-4-carboxybenzenesulfonamide disodium salt remained.
24. The test procedure of Example 20 was repeated, wherein the pH of the sample was adjusted to 10.3 with 1N sodium hydroxide and the t-Butanol was replaced with ethanol. The solution was allowed to stand 30 days at which time 70% of the sulfonamide compound remained.
25. The test procedure of Example 20 was repeated, wherein the pH of the sample was adjusted to 6.0 with 1N sulfuric acid and the t-Butanol was replaced with isopropanol. The solution was allowed to stand 1 day at which time 0% of the sulfonamide compound remained.
26. The test procedure of Example 20 was repeated where the pH of the sample was 8.7 and the t-butanol was replaced with isopropanol. The sample was allowed to stand for 7 days. At the end of this period 50%, the N-chloro-4-carboxybenzenesulfonamide disodium salt remained.
27. The test procedure of Example 20 was repeated, wherein the pH of the sample was adjusted to 10.3 with 1N sodium hydroxide and the t-Butanol was replaced with isopropanol. The solution was allowed to stand 30 days at which time 90% of the sulfonamide compound remained.

[2] = Odor control spray test, six person human panel: fox urine odor; parameters: key: E=Excellent, immediate removal of odor, no remaining odor.; G=Good, Immediate (within seconds) reduction of odor, very slight but detectable trace odor remains.; F=Fair, Immediate (within seconds) reduction, more pronounced odor remains.; P=Detectable reduction in odor but rate of reduction is slow and a much more pronounced odor remains; details: 0.5 g red fox urine, 3 g of 1% w/w solution with 0.3% Avenal S-74, pH 8.0-9.0, sprayed, 20° C.
Protocol: (§1) For purposes of conducting the test in accordance with the below listed Examples a series of odorous test reagents were prepared. The utilized odorous test reagents are in accordance with the following:
0.5 g of deer hunter's grade red fox urine was used for each test.
(§2) Unless otherwise specified separate 1% w/w solutions in water of each halo active aromatic sulfonamide derivative were prepared for use. Each solution also contained 0.3% Avenal S-74. The pH of the resulting formulations varied between 8.0 and 9.0.
(§3) The testing protocol for Examples 1 thru 12 involved is as follows: The defined odorous reagents were added to a beaker, watch glass, or petri dish. For each aromatic sulfonamide derivative, 3 grams of the formulated odor control solution defined above were sprayed with a trigger sprayer, separately onto each odor (onion, garlic, fox urine, rotten egg. Odor evaluations were then made by a six person human panel.
(§4) The evaluation criteria utilized is as follows;
(§5) All test evaluations were made at 20° C.

[3] = Odor control spray test, six person human panel: garlic odor (DMSO); parameters: key: E=Excellent, immediate removal of odor, no remaining odor.; G=Good, Immediate (within seconds) reduction of odor, very slight but detectable trace odor remains.; F=Fair, Immediate (within seconds) reduction, more pronounced odor remains.; P=Detectable reduction in odor but rate of reduction is slow and a much more pronounced odor remains; details: 1 g DMSO, 3 g of 1% w/w solution with 0.3% Avenal S-74, pH 8.0-9.0, sprayed, 20° C.
Protocol: as §1
DMSO (dimethyl sulfoxide) 1 g was used for each test.
as §2, §3, §4, §5

[4] = Odor control spray test, six person human panel: onion odor; parameters: key: E=Excellent, immediate removal of odor, no remaining odor.; G=Good, Immediate (within seconds) reduction of odor, very slight but detectable trace odor remains.; F=Fair, Immediate (within seconds) reduction, more pronounced odor remains.; P=Detectable reduction in odor but rate of reduction is slow and a much more pronounced odor remains; details: 2 g chopped white onion, 3 g of 1% w/w solution with 0.3% Avenal S-74, pH 8.0-9.0, sprayed, 20° C.
Protocol: as §1
2 g samples of chopped white onion (Approximately ⅛″ cubes) were prepared and used for each test.
as §2, §3, §4, §5

[5] = Odor control spray test, six person human panel: rotten egg odor (sodium sulfide + acetic acid); parameters: key: E=Excellent, immediate removal of odor, no remaining odor.; G=Good, Immediate (within seconds) reduction of odor, very slight but detectable trace odor remains.; F=Fair, Immediate (within seconds) reduction, more pronounced odor remains.; P=Detectable reduction in odor but rate of reduction is slow and a much more pronounced odor remains; details: 0.1 g 5% sodium sulfide solution + 2 drops glacial acetic acid, 3 g of 1% w/w solution with 0.3% Avenal S-74, pH 8.0-9.0, sprayed, 20° C.
Protocol: as §1
0.1 g of a 5% sodium sulfide solution was added to a beaker and 2 drops of glacial acetic acid was added to prepare the rotten egg scent and used for each test.
as §2, §3, §4, §5

sulfonamide compound remained ([1]; base formulation with t-Butanol, pH 8.7, 50° C., 30 days) [%] | sulfonamide compound remained ([1]; t-Butanol replaced with ethanol, pH 6.0, 50° C., 1 day) [%] | sulfonamide compound remained ([1]; t-Butanol replaced with ethanol, pH 10.3 with 1N sodium hydroxide, 50° C., 30 days) [%] | sulfonamide compound remained ([1]; t-Butanol replaced with isopropanol, pH 6.0, 50° C., 1 day) [%] | sulfonamide compound remained ([1]; t-Butanol replaced with isopropanol, pH 10.3 with 1N sodium hydroxide, 50° C., 30 days) [%] | sulfonamide compound remained ([1]; t-Butanol, pH adjusted to 6.0 with 1N sulfuric acid, 50° C., 1 day) [%] | sulfonamide compound remained ([1]; t-butanol replaced with ethanol, pH 8.7, 50° C., 7 days) [%] | sulfonamide compound remained ([1]; t-butanol replaced with isopropanol, pH 8.7, 50° C., 7 days) [%] | Compound | Fox Urine odor evaluation [2] | Garlic odor evaluation [3] | Onion odor evaluation [4] | Rotten Egg odor evaluation [5]
99.5 | 0 | 70 | 0 | 90 | 0 | 0 | 50 | N-chloro-4-carboxybenzenesulfonamide disodium salt |  |  |  | 
 |  |  |  |  |  |  |  | O=[N+]([O-])c1ccc(S(=O)(=O)[N-]Cl)cc1.[Na+] [Example 11] | E | F | G | F
 |  |  |  |  |  |  |  | O=C([O-])c1ccc(S(=O)(=O)[N-]Cl)cc1.[Na+].[Na+] [Example 12] | E | F | E | E
